Tests used:
[1] = tested on: ABUTH (Velvetleaf); test: Preemergence herbicidal evaluation; format: in vivo, Abutilon theophrasti; details: rated 4-5 weeks after treatment
Procedure, shortened: (§1)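 Rating at 4–5 wk post-spray on a 0–9 visual scale vs control. Application: aqueous acetone, ~0.0156–0.500 kg/ha, to soil surface after seeding, preemergence.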

[2] = tested on: CASOB (Sicklepod); test: Preemergence herbicidal evaluation; format: in vivo, Cassia obtusifolia; details: rated 4-5 weeks after treatment
Procedure, shortened: as §1

[3] = tested on: CHEAL (Lambsquarters, Common); test: Postemergence herbicidal evaluation; format: in vivo, Chenopodium album; details: postemergence
Procedure, shortened: (§2)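 Rate range approx. 0.0156–0.500 kg/ha. Foliar application at 40 psi to ~2-week seedlings; surfactant 0.5% TWEEN 20 in 50/50 acetone/water. Evaluation 4–5 wk post-treatment by 0–9 visual injury score, means of replicate tests.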

[4] = tested on: GLXMAW (Soybean, Williams); test: Preemergence herbicidal evaluation; format: in vivo, Glycine max, (L.) Merr. cv Williams; details: rated 4-5 weeks after treatment
Procedure, shortened: as §1

[5] = tested on: ORYSAT (Rice, Tebonnet); test: Postemergence herbicidal evaluation; format: in vivo, Oryza sativa, (L.) Tebonnet; details: postemergence
Procedure, shortened: as §2

[6] = tested on: ECHCG (Barnyardgrass); test: Postemergence herbicidal evaluation; format: in vivo, Echinochloa crus-galli; details: postemergence
Procedure, shortened: as §2

[7] = tested on: ZEAMX (Corn, Field); test: Preemergence herbicidal evaluation; format: in vivo, Zea mays; details: rated 4-5 weeks after treatment
Procedure, shortened: as §1

[8] = tested on: TRZAWR (Wheat, Winter, cv Riband); test: Preemergence herbicidal evaluation; format: in vivo, Triticum aestivum; details: rated 4-5 weeks after treatment
Procedure, shortened: as §1

[9] = tested on: IPOHE (Morningglory, Ivyleaf); test: Postemergence herbicidal evaluation; format: in vivo, Ipomoea hederacea; details: postemergence
Procedure, shortened: as §2

[10] = tested on: CHEAL (Lambsquarters, Common); test: Preemergence herbicidal evaluation; format: in vivo, Chenopodium album; details: rated 4-5 weeks after treatment
Procedure, shortened: as §1

[11] = tested on: SETVI (Foxtail, Green); test: Postemergence herbicidal evaluation; format: in vivo, Setaria viridis; details: postemergence
Procedure, shortened: as §2

[12] = tested on: IPOHE (Morningglory, Ivyleaf); test: Preemergence herbicidal evaluation; format: in vivo, Ipomoea hederacea; details: rated 4-5 weeks after treatment
Procedure, shortened: as §1

[13] = tested on: ABUTH (Velvetleaf); test: Postemergence herbicidal evaluation; format: in vivo, Abutilon theophrasti; details: postemergence
Procedure, shortened: as §2

[14] = tested on: ECHCG (Barnyardgrass); test: Preemergence herbicidal evaluation; format: in vivo, Echinochloa crus-galli; details: rated 4-5 weeks after treatment
Procedure, shortened: as §1

[15] = tested on: ZEAMX (Corn, Field); test: Postemergence herbicidal evaluation; format: in vivo, Zea mays; details: postemergence
Procedure, shortened: as §2

[16] = rate 0.0313 kg/ha, rating scale 0-9
[17] = rate 0.0625 kg/ha, rating scale 0-9
[18] = rate 0.1250 kg/ha, rating scale 0-9
[19] = rate 0.2500 kg/ha, rating scale 0-9

Cc1ccccc1CN1C(=O)CSC1=Nc1cc(-n2c(=O)cc(C(F)(F)F)n(C)c2=O)c(F)cc1Cl [Compound 129, 3-{4-Chloro-2-fluoro-5-{[3-(o-methylbenzyl)-4-oxo-2-thiazolidinylidene]amino}phenyl}-1-methyl-6-(trifluoromethyl)-2,4 (1H,3H)-pyrimidinedione]
Preemergence herbicidal rating ABUTH ([1]; rate 0.0156 kg/ha): 0.0 | Preemergence herbicidal rating ABUTH ([1]; rate 0.0313 kg/ha): 1.0 | Preemergence herbicidal rating ABUTH ([1]; rate 0.0625 kg/ha): 9.0 | Preemergence herbicidal rating ABUTH ([1]; rate 0.1250 kg/ha): 9.0 | Preemergence herbicidal rating ABUTH ([1]; rate 0.2500 kg/ha): 9.0 | Preemergence herbicidal rating CASOB ([2]; rate 0.0156 kg/ha): 1.0 | Preemergence herbicidal rating CASOB ([2]; rate 0.0313 kg/ha): 1.0 | Preemergence herbicidal rating CASOB ([2]; rate 0.0625 kg/ha): 1.0 | Preemergence herbicidal rating CASOB ([2]; rate 0.1250 kg/ha): 7.0 | Preemergence herbicidal rating CASOB ([2]; rate 0.2500 kg/ha): 8.0 | Herbicidal rating CHEAL ([3]; rate 0.0156 kg/ha): 5.0 | Herbicidal rating CHEAL ([3]; rate 0.0313 kg/ha): 9.0 | Herbicidal rating CHEAL ([3]; rate 0.0625 kg/ha): 9.0 | Preemergence herbicidal rating GLXMAW ([4]; rate 0.0156 kg/ha): 0.0 | Preemergence herbicidal rating GLXMAW ([4]; rate 0.0313 kg/ha): 0.0 | Preemergence herbicidal rating GLXMAW ([4]; rate 0.0625 kg/ha): 2.0 | Preemergence herbicidal rating GLXMAW ([4]; rate 0.1250 kg/ha): 2.0 | Preemergence herbicidal rating GLXMAW ([4]; rate 0.2500 kg/ha): 4.0 | Herbicidal rating ORYSAT ([5]; rate 0.0156 kg/ha): 2.5 | Herbicidal rating ORYSAT ([5]; rate 0.0313 kg/ha): 3.5 | Herbicidal rating ORYSAT ([5]; rate 0.0625 kg/ha): 3.0 | Herbicidal rating ECHCG ([6]; rate 0.0156 kg/ha): 1.0 | Herbicidal rating ECHCG ([6]; rate 0.0313 kg/ha): 2.0 | Herbicidal rating ECHCG ([6]; rate 0.0625 kg/ha): 3.0 | Preemergence herbicidal rating ZEAMX ([7]; rate 0.0156 kg/ha): 0.0 | Preemergence herbicidal rating ZEAMX ([7]; rate 0.0313 kg/ha): 0.0 | Preemergence herbicidal rating ZEAMX ([7]; rate 0.0625 kg/ha): 0.0 | Preemergence herbicidal rating ZEAMX ([7]; rate 0.1250 kg/ha): 1.0 | Preemergence herbicidal rating ZEAMX ([7]; rate 0.2500 kg/ha): 1.0 | Preemergence herbicidal rating TRZAWR ([8]; rate 0.0156 kg/ha): 0.0 | Preemergence herbicidal rating TRZAWR ([8]; rate 0.0313 kg/ha): 0.0 | Preemergence herbicidal rating TRZAWR ([8]; rate 0.0625 kg/ha): 0.0 | Preemergence herbicidal rating TRZAWR ([8]; rate 0.1250 kg/ha): 1.0 | Preemergence herbicidal rating TRZAWR ([8]; rate 0.2500 kg/ha): 1.0 | Herbicidal rating IPOHE ([9]; rate 0.0156 kg/ha): 9.0 | Herbicidal rating IPOHE ([9]; rate 0.0313 kg/ha): 9.0 | Herbicidal rating IPOHE ([9]; rate 0.0625 kg/ha): 9.0 | Preemergence herbicidal rating CHEAL ([10]; rate 0.0156 kg/ha): 4.0 | Preemergence herbicidal rating CHEAL ([10]; rate 0.0313 kg/ha): 3.0 | Preemergence herbicidal rating CHEAL ([10]; rate 0.0625 kg/ha): 9.0 | Preemergence herbicidal rating CHEAL ([10]; rate 0.1250 kg/ha): 9.0 | Preemergence herbicidal rating CHEAL ([10]; rate 0.2500 kg/ha): 9.0 | Herbicidal rating SETVI ([11]; rate 0.0156 kg/ha): 2.0 | Herbicidal rating SETVI ([11]; rate 0.0313 kg/ha): 3.0 | Herbicidal rating SETVI ([11]; rate 0.0625 kg/ha): 5.0 | Preemergence herbicidal rating IPOHE ([12]; rate 0.0156 kg/ha): 0.0 | Preemergence herbicidal rating IPOHE ([12]; rate 0.0313 kg/ha): 0.0 | Preemergence herbicidal rating IPOHE ([12]; rate 0.0625 kg/ha): 0.0 | Preemergence herbicidal rating IPOHE ([12]; rate 0.1250 kg/ha): 9.0 | Preemergence herbicidal rating IPOHE ([12]; rate 0.2500 kg/ha): 9.0 | Herbicidal rating ABUTH ([13]; rate 0.0156 kg/ha): 9.0 | Herbicidal rating ABUTH ([13]; rate 0.0313 kg/ha): 9.0 | Herbicidal rating ABUTH ([13]; rate 0.0625 kg/ha): 9.0 | Preemergence herbicidal rating ECHCG ([14]; rate 0.0156 kg/ha): 0.0 | Preemergence herbicidal rating ECHCG ([14]; rate 0.0313 kg/ha): 0.0 | Preemergence herbicidal rating ECHCG ([14]; rate 0.0625 kg/ha): 0.0 | Preemergence herbicidal rating ECHCG ([14]; rate 0.1250 kg/ha): 1.0 | Preemergence herbicidal rating ECHCG ([14]; rate 0.2500 kg/ha): 0.0 | Herbicidal rating ZEAMX ([15]; rate 0.0156 kg/ha): 4.0 | Herbicidal rating ZEAMX ([15]; rate 0.0313 kg/ha): 4.5 | Herbicidal rating ZEAMX ([15]; rate 0.0625 kg/ha): 4.5

Cn1c(C(F)(F)F)cc(=O)n(-c2cc(N=C3SCC(=O)N3Cc3ccccn3)c(Cl)cc2F)c1=O [Compound 131]
Preemergence herbicidal rating ABUTH [1, 16]: 0.0 | Preemergence herbicidal rating ABUTH [1, 17]: 0.0 | Preemergence herbicidal rating ABUTH [1, 18]: 2.0 | Preemergence herbicidal rating ABUTH [1, 19]: 9.0 | Preemergence herbicidal rating CASOB [2, 16]: 0.0 | Preemergence herbicidal rating CASOB [2, 17]: 0.0 | Preemergence herbicidal rating CASOB [2, 18]: 0.0 | Preemergence herbicidal rating CASOB [2, 19]: 2.0 | Herbicidal rating CHEAL ([3]; rate 0.0156 kg/ha): 3.0 | Herbicidal rating CHEAL ([3]; rate 0.0313 kg/ha): 5.0 | Herbicidal rating CHEAL ([3]; rate 0.0625 kg/ha): 9.0 | Preemergence herbicidal rating GLXMAW [4, 16]: 0.0 | Preemergence herbicidal rating GLXMAW [4, 17]: 1.0 | Preemergence herbicidal rating GLXMAW [4, 18]: 1.0 | Preemergence herbicidal rating GLXMAW [4, 19]: 1.0 | Herbicidal rating ORYSAT ([5]; rate 0.0156 kg/ha): 2.0 | Herbicidal rating ORYSAT ([5]; rate 0.0313 kg/ha): 2.5 | Herbicidal rating ORYSAT ([5]; rate 0.0625 kg/ha): 3.0 | Herbicidal rating ECHCG ([6]; rate 0.0156 kg/ha): 2.0 | Herbicidal rating ECHCG ([6]; rate 0.0313 kg/ha): 2.0 | Herbicidal rating ECHCG ([6]; rate 0.0625 kg/ha): 2.0 | Preemergence herbicidal rating ZEAMX [7, 16]: 0.0 | Preemergence herbicidal rating ZEAMX [7, 17]: 0.0 | Preemergence herbicidal rating ZEAMX [7, 18]: 0.0 | Preemergence herbicidal rating ZEAMX [7, 19]: 0.0 | Preemergence herbicidal rating TRZAWR [8, 16]: 0.0 | Preemergence herbicidal rating TRZAWR [8, 17]: 0.0 | Preemergence herbicidal rating TRZAWR [8, 18]: 0.0 | Preemergence herbicidal rating TRZAWR [8, 19]: 0.0 | Herbicidal rating IPOHE ([9]; rate 0.0156 kg/ha): 7.0 | Herbicidal rating IPOHE ([9]; rate 0.0313 kg/ha): 9.0 | Herbicidal rating IPOHE ([9]; rate 0.0625 kg/ha): 9.0 | Preemergence herbicidal rating CHEAL [10, 16]: 4.0 | Preemergence herbicidal rating CHEAL [10, 17]: 9.0 | Preemergence herbicidal rating CHEAL [10, 18]: 9.0 | Preemergence herbicidal rating CHEAL [10, 19]: 9.0 | Herbicidal rating SETVI ([11]; rate 0.0156 kg/ha): 3.0 | Herbicidal rating SETVI ([11]; rate 0.0313 kg/ha): 4.0 | Herbicidal rating SETVI ([11]; rate 0.0625 kg/ha): 5.0 | Preemergence herbicidal rating IPOHE [12, 16]: 0.0 | Preemergence herbicidal rating IPOHE [12, 17]: 0.0 | Preemergence herbicidal rating IPOHE [12, 18]: 0.0 | Preemergence herbicidal rating IPOHE [12, 19]: 0.0 | Herbicidal rating ABUTH ([13]; rate 0.0156 kg/ha): 7.0 | Herbicidal rating ABUTH ([13]; rate 0.0313 kg/ha): 9.0 | Herbicidal rating ABUTH ([13]; rate 0.0625 kg/ha): 9.0 | Preemergence herbicidal rating ECHCG [14, 16]: 0.0 | Preemergence herbicidal rating ECHCG [14, 17]: 0.0 | Preemergence herbicidal rating ECHCG [14, 18]: 0.0 | Preemergence herbicidal rating ECHCG [14, 19]: 2.0 | Herbicidal rating ZEAMX ([15]; rate 0.0156 kg/ha): 4.5 | Herbicidal rating ZEAMX ([15]; rate 0.0313 kg/ha): 4.5 | Herbicidal rating ZEAMX ([15]; rate 0.0625 kg/ha): 4.5

Reference: patent US20020137929A1, “1 - (3-heterocyclylphenyl) isothiourea, -isourea, -guanidine and -amidine herbicidal agents” (Intellectual Property Department, BASF Aktiengesellschaft, priority 1998, published 2002)
